Consider one molecule from article PMC5471267, “Novel regulatory mechanism of serine biosynthesis associated with 3-phosphoglycerate dehydrogenase in Arabidopsis thaliana” (Scientific Reports, 2017).

Experiment in all cases: 3-PGA oxidation, NADH absorbance at […] nm; Hill fit
One assay deals with T1, AtPGDH1 (Arabidopsis thaliana, UniProt O49485).
T1 construct: gene PGDH1; mature enzyme, predicted chloroplast transit peptide removed; eXact tag cleaved (tag-free); E. coli BL21 CodonPlus(DE3)-RIL; homotetramer
T1 sequence (O49485 59-603 limits assumed): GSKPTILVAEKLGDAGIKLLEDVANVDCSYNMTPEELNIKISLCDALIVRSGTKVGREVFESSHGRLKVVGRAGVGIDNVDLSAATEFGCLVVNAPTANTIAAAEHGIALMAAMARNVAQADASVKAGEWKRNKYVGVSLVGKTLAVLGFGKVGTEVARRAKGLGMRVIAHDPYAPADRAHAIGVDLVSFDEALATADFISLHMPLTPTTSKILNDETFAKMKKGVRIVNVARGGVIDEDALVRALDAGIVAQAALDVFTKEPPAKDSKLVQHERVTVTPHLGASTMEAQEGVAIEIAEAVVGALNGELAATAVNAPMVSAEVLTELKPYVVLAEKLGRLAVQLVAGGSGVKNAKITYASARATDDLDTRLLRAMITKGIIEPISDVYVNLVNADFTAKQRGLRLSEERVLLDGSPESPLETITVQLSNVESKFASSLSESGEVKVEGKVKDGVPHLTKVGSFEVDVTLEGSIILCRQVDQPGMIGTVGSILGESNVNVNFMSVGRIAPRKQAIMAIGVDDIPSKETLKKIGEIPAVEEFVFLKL
Format: biochemical.

In the next assay the target is T2, AtPGDH3 (Arabidopsis thaliana, UniProt Q9LT69).
T2 construct: gene PGDH3; mature enzyme, predicted chloroplast transit peptide removed; eXact tag cleaved (tag-free); E. coli BL21 CodonPlus(DE3)-RIL; homotetramer
T2 sequence (Q9LT69 44-588 limits assumed): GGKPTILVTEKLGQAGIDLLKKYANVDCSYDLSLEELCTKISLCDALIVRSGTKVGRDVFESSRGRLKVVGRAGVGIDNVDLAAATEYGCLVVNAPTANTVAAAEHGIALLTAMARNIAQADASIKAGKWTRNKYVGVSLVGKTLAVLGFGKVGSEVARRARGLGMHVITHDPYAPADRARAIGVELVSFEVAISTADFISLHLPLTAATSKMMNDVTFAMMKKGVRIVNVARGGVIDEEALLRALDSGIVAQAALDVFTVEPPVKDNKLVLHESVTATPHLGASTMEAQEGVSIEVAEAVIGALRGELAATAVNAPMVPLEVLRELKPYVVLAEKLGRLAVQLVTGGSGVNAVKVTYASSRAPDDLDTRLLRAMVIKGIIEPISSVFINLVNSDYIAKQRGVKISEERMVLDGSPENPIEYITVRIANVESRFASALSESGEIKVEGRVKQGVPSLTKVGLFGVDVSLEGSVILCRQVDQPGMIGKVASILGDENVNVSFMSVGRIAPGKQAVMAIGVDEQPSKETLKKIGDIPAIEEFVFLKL
Format: biochemical.

For a further assay, the system named is T3, AtPGDH-N1/C2.
T3 construct: gene PGDH1; one fused polypeptide: N-terminal half (catalytic domain) of AtPGDH1 + C-terminal half (ASB and ACT domains) of AtPGDH2; tag-free, E. coli; mainly homotetramer, also multimers up to 20 subunits
Format: biochemical, Arabidopsis thaliana. The settings on record: activator, cooperative; 10 mM 3-PGA, 1 mM NAD+, 0.1 M NaCl, pH 9.0, 25 °C.

The test system of a further assay is T4, AtPGDH-N2/C1.
T4 construct: gene PGDH2; one fused polypeptide: N-terminal half (catalytic domain) of AtPGDH2 + C-terminal half (ASB and ACT domains) of AtPGDH1; tag-free, E. coli; homotetramer
Format: biochemical, Arabidopsis thaliana. The settings on record: activator, cooperative; 10 mM 3-PGA, 1 mM NAD+, 0.1 M NaCl, pH 9.0, 25 °C.

What is called EC50 is the concentration needed to bring the measured effect to its halfway point. A lower EC50 goes with greater potency. For `C[C@H](N)C(=O)O` [L-alanine], the EC50 at AtPGDH1 was determined as 5.3 ± 0.2 mM; on AtPGDH3, 4.9 ± 0.2 mM; in the assay on AtPGDH-N1/C2 it was 3.7 ± 0.1 mM; in the assay on AtPGDH-N2/C1, 2.6 ± 0.1 mM.
